Results taken from patent US10723998B2, “Application of ethyl p-methoxycinnamate and derivatives thereof in maintaining self-renewal and pluripotency of stem cells” (NORTHEAST NORMAL UNIVERSITY, priority 2015, dated 2020).

Key:
[1] = system: Oct4 protein; assay: Oct4 protein expression by Western Blot in P19 cells; type: cell-based, mouse; conditions: 5 μg/mL, 24 h, DMSO control, FIG. 3
Protocol: The effect of ethyl p-methoxycinnamate on Oct4 protein expression was assayed using a Western Blot method. Mouse teratoma cells P19 were inoculated in a 6-well plate. After 24 h, ethyl p-methoxycinnamate with a final concentration of 5 μg/mL was added to continue to act for another 24 h, and the control group was treated with DMSO. After the cells were washed with PBS three times, the cells were scraped with a scraper, transferred to an EP tube, and centrifuged at 4000 rpm for 5 min. The supernatant was discarded. 90 μL of lysis solution (50 mM Tris-HCl pH 7.5, 150 mM NaCl, 1 mM NaF, 0.5% NP-40, 2 μg/mL Aprotinin, and 1 mM PMSF) was added to each tube of precipitate, and the EP tube was treated on ice for 30 min and vortexed once every 5 min, so that the cells were completely lysed. After centrifugation at 12000 rpm for 10 min, the supernatant was transferred to a new EP tube, 1/3 volume of 4× protein loading buffer was added, mixed well, and boiled for 10 min, and after instantaneous centrifugation, the mixture was subjected to electrophoresis or placed at −80° C. to be frozen for standby use.
A transfer membrane buffer was prepared and precooled at 4° C. A PVDF membrane was soaked in methanol for 40 s, then taken out and soaked in the transfer membrane buffer for standby use. […]

[2] = system: Oct4 promoter; assay: Oct4 promoter luciferase reporter assay (pGL3-Oct4P-Basic) in P19 cells; type: cell-based, mouse; conditions: 5 μg/mL, 12-24 h, DMSO control, FIG. 1
Source text: According to a method described in literature (Yang H M, Do H J, Oh J H, et al. Characterization of putative cis-regulatory elements that control the transcriptional activity of the human Oct4 promoter[J]. Journal of cellular biochemistry, 2005, 96(4):821-830), the promoter of Oct4 gene was picked and cloned into pGL3-Basic, so as to construct pGL3-Oct4P-Basic reporter plasmid. One day before transfection, mouse teratoma cells P19 were inoculated into a 6-well cell culture plate at a density of 2×10^5 cells/well to make the cells grown to about 80% before transfection. […]
Luciferase Reporter Assay System and FluoStar Optima were used to assay the luciferase activity of the transfected cell lysis solution. To 45 μL of the cell lysis solution was added 5 μL of Assay Cocktail reagent, after they were mixed well, 100 μL of Luciferin reaction solution was added, and fluorescence counting in 2 s was measured using FluoStar Optima instrument, which reflected the activity level of the studied plasmid reporter genes expressing firefly luciferase. […] An absorption value at 450 nm was assayed using a microplate reader, which reflected the activity level of internal reference plasmid pCMV-β-gal expressing β-galactosidase. […] The relative luciferase activity of different samples was calculated through the following equation: […]

## CCOC(=O)C=Cc1ccc(OC)cc1 [ethyl p-methoxycinnamate]
[1]
  effect on the expression of Oct4 protein: can promote the expression of Oct4 protein
[2]
  effect on the activity of Oct4 promoter (relative luciferase activity): reached a statistically significant difference (*p<0.05)
